Reference: US9452998B2, “Protein kinase C inhibitors and methods of their use” (NOVARTIS AG, priority 2014, dated 2016)

Tests used:
in vivo [1] = conditions: C57BL/6, mouse
[2] = Mouse C57BL/6; Dose IV: 1 mg/kg PO: 10 mg/kg
in vivo [3] = conditions: Wistar-Han, rat
[4] = Rat Wistar-Han; Dose 0.3 mg/kg PO: 3 mg/kg

half-life (in vivo [1]): 30 min
Vd (in vivo [1]; intravenous, 1 mg/kg): 0.4 L/kg
clearance (in vivo [1]; intravenous, 1 mg/kg): 14 mL/min/kg
Cmax (in vivo [1]; po, 10 mg/kg): 946 nM
Tmax (in vivo [1]; po, 10 mg/kg): 18 min
Oral BA (% F) [2]: 6 % F
AUC (in vivo [3]; iv, 0.3 mg/kg): 0.38 µM·h
AUC (in vivo [3]; po, 3 mg/kg): 2.77 µM·h
Cmax (in vivo [3]; po, 3 mg/kg): 756 nM
Tmax (in vivo [3]; po, 3 mg/kg): 90 min
Vss [4]: 1.1 L/kg
Structure (SMILES): Nc1ncc(-c2ncccc2OC(F)(F)F)nc1C(=O)Nc1ncccc1N1CCC(N)CC1 [Example 2, 3-amino-N-(3-(4-aminopiperidin-1-yl)pyridin-2-yl)-6-(3-(trifluoromethoxy)pyridin-2-yl)pyrazine-2-carboxamide]
